Reference: ChEMBL document CHEMBL6177933, “Discovery of Sophoridine α-Aryl Propionamide Derivative ZM600 as a Novel Antihepatic Fibrosis Agent” (J Med Chem, 2024)
Active and inactive are the calls of the source. The rule behind the calls is not given here.

Key:
[1] = Cytotoxicity against human LX-2 cells assessed as reduction in cell viability measured after 48 hrs by CCK-8 assay; assay type: toxicity, cell-based
RAW264.7 [2] = assay: Inhibition of LPS-induced NFkappaB transcriptional activity in mouse RAW264.7 cells at 5 uM preincubated for 2 hrs followed by LPS stimulation and measured after 6 hrs by luciferase reporter gene assay relative to control; assay type: cell-based; details: time 8.0 hrs
RAW264.7 [3] = assay: Inhibition of LPS-induced NFkappaB transcriptional activity in mouse RAW264.7 cells at 10 uM preincubated for 2 hrs followed by LPS stimulation and measured after 6 hrs by luciferase reporter gene assay relative to control; assay type: cell-based; details: time 8.0 hrs
RAW264.7 [4] = assay: Inhibition of LPS-induced NFkappaB transcriptional activity in mouse RAW264.7 cells at 20 uM preincubated for 2 hrs followed by LPS stimulation and measured after 6 hrs by luciferase reporter gene assay relative to control; assay type: cell-based; details: time 8.0 hrs
RAW264.7 [5] = assay: Antiinflammatory activity in mouse RAW264.7 cells assessed as inhibition of TGFbeta1-induced alpha-SMA expression at 5 to 20 uM preincubated for 2 hrs […] and measured after 48 hrs by Western blot analysis; assay type: functional, cell-based; details: dose 5-20 µM, time 50.0 hrs
RAW264.7 [6] = assay: Antiinflammatory activity in mouse RAW264.7 cells assessed as inhibition of TGFbeta1-induced collagen 1 expression at 5 to 20 uM preincubated for 2 hrs […] and measured after 48 hrs by Western blot analysis; assay type: functional, cell-based; details: dose 5-20 µM, time 50.0 hrs

COC(=O)CCC[C@@H]1[C@H]2CCCN3CCC[C@H](CN1C(=O)C(C)c1ccc(-c4ccccc4)cc1)[C@@H]23 (some centres not stated)
IC50 at 48 h [1]: 21.9 µM
fold change (FC) (RAW264.7 [2]): 1.01
fold change (FC) (RAW264.7 [3]): 1.08
fold change (FC) (RAW264.7 [4]): 1.04

COC(=O)CCC[C@@H]1[C@H]2CCCN3CCC[C@H](CN1C(=O)CC1=C(C)/C(=C/c4ccc([S+](C)[O-])cc4)c4ccc(F)cc41)[C@@H]23 (some centres not stated)
IC50 at 48 h [1]: 61.8 µM
fold change (FC) (RAW264.7 [2]): 0.99
fold change (FC) (RAW264.7 [3]): 1
fold change (FC) (RAW264.7 [4]): 0.99

COC(=O)CCC[C@@H]1[C@H]2CCCN3CCC[C@H](CN1C(=O)Cc1ccc(-n4c(C)ccc4C)cc1)[C@@H]23
IC50 at 48 h [1]: 96 µM
fold change (FC) (RAW264.7 [2]): 1.05
fold change (FC) (RAW264.7 [3]): 0.93
fold change (FC) (RAW264.7 [4]): 1.08

O=C1CCC[C@@H]2[C@H]3CCCN4CCC[C@H](CN12)[C@@H]34 [SOPHORIDINE]
IC50 at 48 h [1]: > 100 µM
fold change (FC) (RAW264.7 [2]): 1.03
fold change (FC) (RAW264.7 [3]): 0.94
fold change (FC) (RAW264.7 [4]): 1.05
inhibition (RAW264.7 [5]): inactive
inhibition (RAW264.7 [6]): inactive

COC(=O)CCC[C@@H]1[C@H]2CCCN3CCC[C@H](CN1C(=O)Cc1ccc(-c4cccc(F)c4)cc1)[C@@H]23
IC50 at 48 h [1]: 53.3 µM
fold change (FC) (RAW264.7 [2]): 1.21
fold change (FC) (RAW264.7 [3]): 1.16
fold change (FC) (RAW264.7 [4]): 1.04

COC(=O)CCC[C@@H]1[C@H]2CCCN3CCC[C@H](CN1C(=O)C(C)c1ccc(CC(C)C)cc1)[C@@H]23 (some centres not stated)
IC50 at 48 h [1]: 53 µM
fold change (FC) (RAW264.7 [2]): 1.03
fold change (FC) (RAW264.7 [3]): 1.04
fold change (FC) (RAW264.7 [4]): 1

COC(=O)CCC[C@@H]1[C@H]2CCCN3CCC[C@H](CN1C(=O)COC(=O)Cc1ccccc1Nc1c(Cl)cccc1Cl)[C@@H]23
IC50 at 48 h [1]: 14.7 µM
fold change (FC) (RAW264.7 [2]): 0.93
fold change (FC) (RAW264.7 [3]): 0.93
fold change (FC) (RAW264.7 [4]): 0.81

COC(=O)CCC[C@@H]1[C@H]2CCCN3CCC[C@H](CN1C(=O)Cc1ccc(-c4ccccc4)cc1)[C@@H]23
IC50 at 48 h [1]: 31.7 µM
fold change (FC) (RAW264.7 [2]): 0.99
fold change (FC) (RAW264.7 [3]): 0.94
fold change (FC) (RAW264.7 [4]): 0.85

COC(=O)CCC[C@@H]1[C@H]2CCCN3CCC[C@H](CN1C(=O)[C@H](C)c1ccc4cc(OC)ccc4c1)[C@@H]23
IC50 at 48 h [1]: 63.5 µM
fold change (FC) (RAW264.7 [2]): 1.02
fold change (FC) (RAW264.7 [3]): 0.99
fold change (FC) (RAW264.7 [4]): 0.94

COC(=O)CCC[C@@H]1[C@H]2CCCN3CCC[C@H](CN1C(=O)Cc1ccc(-c4ccccc4)c(F)c1)[C@@H]23
IC50 at 48 h [1]: 14.5 µM
fold change (FC) (RAW264.7 [2]): 0.97
fold change (FC) (RAW264.7 [3]): 1.13
fold change (FC) (RAW264.7 [4]): 1.04
